Test results reported in ChEMBL document CHEMBL1135217, “N-aryl 2,6-dimethoxybiphenylalanine analogues as VLA-4 antagonists” (Bioorg Med Chem Lett, 2002).

Legend:
Integrin alpha-4/beta-1 [1] = biological target: T1, Integrin alpha-4/beta-1 (Homo sapiens, UniProt P05556+P13612); assay: Inhibition of [125I]-VCAM-Ig binding to very late antigen -4 (VLA-4) on Jurkat cells at 4 uM; assay type: cell-based
Integrin alpha-4/beta-1 [2] = biological target: T1, Integrin alpha-4/beta-1; assay: In vitro inhibition of [125I]VCAM-Ig binding to very late antigen -4 on jurkat cells.; assay type: cell-based
Rattus norvegicus [3] = species on record: Rattus norvegicus; assay: Volume of distribution at steady state in Dawley rat; details: in vivo
[4] = Bioavailability in rat (Sprague-Dawley); assay type: ADME, organism-based; details: in vivo
Rattus norvegicus [5] = species on record: Rattus norvegicus; assay: Half-life was determined in Dawley rat; details: in vivo
[6] = Clearance in Dawley rat; assay type: ADME, organism-based; details: Sprague-Dawley, plasma, read-out: Clp

T1 sequence (P05556 whole entry): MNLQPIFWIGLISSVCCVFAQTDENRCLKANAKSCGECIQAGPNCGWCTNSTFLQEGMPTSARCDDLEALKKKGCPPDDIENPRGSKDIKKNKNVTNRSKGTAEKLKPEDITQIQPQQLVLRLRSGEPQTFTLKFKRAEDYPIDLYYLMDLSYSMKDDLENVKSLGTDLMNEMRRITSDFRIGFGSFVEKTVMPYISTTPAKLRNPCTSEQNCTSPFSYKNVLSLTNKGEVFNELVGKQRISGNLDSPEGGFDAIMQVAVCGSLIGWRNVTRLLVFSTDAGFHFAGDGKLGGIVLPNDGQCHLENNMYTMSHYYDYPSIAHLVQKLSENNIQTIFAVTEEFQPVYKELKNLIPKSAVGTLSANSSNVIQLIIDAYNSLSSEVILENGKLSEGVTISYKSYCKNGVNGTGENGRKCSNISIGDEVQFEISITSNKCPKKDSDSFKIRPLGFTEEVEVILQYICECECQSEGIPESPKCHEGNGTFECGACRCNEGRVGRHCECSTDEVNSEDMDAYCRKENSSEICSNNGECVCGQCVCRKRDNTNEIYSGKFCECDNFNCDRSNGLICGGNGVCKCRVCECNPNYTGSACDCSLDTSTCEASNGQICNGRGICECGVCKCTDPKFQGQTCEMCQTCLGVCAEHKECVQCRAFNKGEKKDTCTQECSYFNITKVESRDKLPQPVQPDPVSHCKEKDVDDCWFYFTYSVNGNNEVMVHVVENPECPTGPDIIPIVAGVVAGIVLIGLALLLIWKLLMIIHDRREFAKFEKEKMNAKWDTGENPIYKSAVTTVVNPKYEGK
T1 sequence (P13612 whole entry): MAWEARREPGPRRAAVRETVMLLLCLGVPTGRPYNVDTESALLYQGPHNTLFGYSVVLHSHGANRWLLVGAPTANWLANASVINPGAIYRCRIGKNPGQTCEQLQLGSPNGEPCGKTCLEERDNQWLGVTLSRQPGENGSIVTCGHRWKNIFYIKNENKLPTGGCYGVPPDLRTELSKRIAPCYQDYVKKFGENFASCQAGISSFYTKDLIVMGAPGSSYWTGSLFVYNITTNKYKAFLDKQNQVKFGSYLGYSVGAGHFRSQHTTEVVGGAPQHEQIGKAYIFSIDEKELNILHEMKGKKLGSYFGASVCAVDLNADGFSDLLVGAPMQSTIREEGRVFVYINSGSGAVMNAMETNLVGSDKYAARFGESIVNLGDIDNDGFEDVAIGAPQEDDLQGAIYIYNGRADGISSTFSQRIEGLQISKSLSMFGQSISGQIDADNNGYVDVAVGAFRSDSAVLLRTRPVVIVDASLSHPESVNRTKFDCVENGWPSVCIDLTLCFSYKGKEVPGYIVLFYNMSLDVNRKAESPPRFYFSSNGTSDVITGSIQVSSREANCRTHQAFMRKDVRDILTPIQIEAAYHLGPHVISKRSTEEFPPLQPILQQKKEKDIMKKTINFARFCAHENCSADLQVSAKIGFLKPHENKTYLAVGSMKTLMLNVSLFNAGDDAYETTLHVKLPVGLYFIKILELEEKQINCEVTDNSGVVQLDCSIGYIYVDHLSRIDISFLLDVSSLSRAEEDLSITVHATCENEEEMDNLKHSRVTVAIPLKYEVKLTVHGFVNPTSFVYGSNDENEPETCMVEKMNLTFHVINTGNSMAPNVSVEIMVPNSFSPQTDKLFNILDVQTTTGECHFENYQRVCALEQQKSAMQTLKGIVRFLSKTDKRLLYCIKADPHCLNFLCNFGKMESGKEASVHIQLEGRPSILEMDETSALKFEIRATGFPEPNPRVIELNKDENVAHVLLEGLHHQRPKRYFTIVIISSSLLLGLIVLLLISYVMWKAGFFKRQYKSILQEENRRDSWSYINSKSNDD

IC50 (Integrin alpha-4/beta-1 [2]) [nM] | Structure (SMILES) | further results
97 | COc1cccc(OC)c1-c1ccc(CC(Nc2ccc(S(C)(=O)=O)cc2)C(=O)O)cc1 (stereo not given) | –
4360 | COc1cccc(OC)c1-c1ccc(CC(Nc2cccc(C#N)c2)C(=O)O)cc1 (stereo not given) | –
820 | COc1cccc(OC)c1-c1ccc(CC(Nc2cccnc2)C(=O)O)cc1 (stereo not given) | –
5250 | COc1cccc(OC)c1-c1ccc(CC(Nc2ccc([N+](=O)[O-])cc2)C(=O)O)cc1 (stereo not given) | –
1.2 | COc1cccc(OC)c1-c1ccc(CC(NC(=O)c2ccccc2)C(=O)O)cc1 (stereo not given) | –
170 | COc1cccc(OC)c1-c1ccc(CC(Nc2ccncc2)C(=O)O)cc1 (stereo not given) | –
8870 | COc1cccc(OC)c1-c1ccc(CC(Nc2ccccc2)C(=O)O)cc1 (stereo not given) | –
4180 | COc1cccc(NC(Cc2ccc(-c3c(OC)cccc3OC)cc2)C(=O)O)n1 (stereo not given) | –
4470 | COc1cccc(OC)c1-c1ccc(CC(Nc2ccc(C#N)cc2)C(=O)O)cc1 (stereo not given) | –
6490 | COc1cccc(OC)c1-c1ccc(CC(Nc2cc(Cl)cc(Cl)c2)C(=O)O)cc1 (stereo not given) | –
3550 | COc1cccc(OC)c1-c1ccc(CC(Nc2ccccc2[N+](=O)[O-])C(=O)O)cc1 (stereo not given) | –
610 | COc1cccc(OC)c1-c1ccc(CC(Nc2ccccn2)C(=O)O)cc1 (stereo not given) | –

The remaining lines, values behind:

Structure (SMILES) | IC50 (Integrin alpha-4/beta-1 [2]) [nM] | further results
COc1cccc(OC)c1-c1ccc(CC(Nc2cc(C(F)(F)F)cc(C(F)(F)F)c2)C(=O)O)cc1 (stereo not given) | – | inhibition (Integrin alpha-4/beta-1 [1]): 46%
COc1cccc(OC)c1-c1ccc(CC(Nc2ccc(C(=O)N3CCCC3)cc2)C(=O)O)cc1 (stereo not given) | 320 | –
COc1cccc(OC)c1-c1ccc(CC(Nc2ccc(S(=O)(=O)N3CCCC3)cc2)C(=O)O)cc1 (stereo not given) | 91 | –
COc1cccc(OC)c1-c1ccc(CC(Nc2ccc(C(F)(F)F)cc2)C(=O)O)cc1 (stereo not given) | – | inhibition (Integrin alpha-4/beta-1 [1]): 45%
COc1cccc(OC)c1-c1ccc(C[C@H](NC(C)=O)C(=O)O)cc1 | 12 | –
COc1cccc(OC)c1-c1ccc(CC(Nc2ccc(C(F)(F)F)cn2)C(=O)O)cc1 (stereo not given) | 3190 | –
CCCS(=O)(=O)c1cc(NC(Cc2ccc(-c3c(OC)cccc3OC)cc2)C(=O)O)ncn1 (stereo not given) | 0.39 | Vdss (Rattus norvegicus [3]): 0.28 L/kg; bioavailability [4]: 6%; T1/2 (Rattus norvegicus [5]): 48 min; clearance [6]: 17 mL/min/kg
COc1cccc(OC)c1-c1ccc(CC(Nc2ccc(C(=O)N3CCCC3)cn2)C(=O)O)cc1 (stereo not given) | 23 | –
COc1cccc(OC)c1-c1ccc(CC(Nc2cccc(S(=O)(=O)N3CCCC3)c2)C(=O)O)cc1 (stereo not given) | 12 | Vdss (Rattus norvegicus [3]): 0.55 L/kg; bioavailability [4]: 24%; T1/2 (Rattus norvegicus [5]): 54 min; clearance [6]: 73 mL/min/kg
COc1cccc(OC)c1-c1ccc(CC(Nc2ccc(S(=O)(=O)c3ccccc3)cc2)C(=O)O)cc1 (stereo not given) | 240 | –
